Source: patent US20260345619A1 (Principia Biopharma Inc., priority 2023, published 2026)

Assay: Pre-bronchodilator FEV1 and percent predicted FEV1 by spirometry, change from baseline
Type: in vivo, human
Details: 400 mg BID
Experimental: Spirometry is a standard test to measure patients' lung function.
The primary endpoint was the proportion of patients with LOAC. The key secondary endpoint for the study was change in pre-bronchodilator FEV1 from baseline at EOT.
Reversibility is defined as an increase of the absolute FEV1 after administration of bronchodilator and is measured by spirometry as postbronchodilator increase in FEV1 in percent of the prebronchodilator FEV1. After spirometry for measuring prebronchodilator FEV1, participants were to receive 2-4 puffs of albuterol/salbutamol or levalbuterol/levosalbutamol from a primed MDI. The postbronchodilator spirometry may have been repeated several times within 30 minutes after administration of bronchodilator. Alternatively, and only if it was consistent with usual office practice (to be documented), reversibility may have been performed using inhalation of nebulized albuterol/salbutamol or levalbuterol/levosalbutamol.
Secondary endpoints included pre-bronchodilator FEV1 change from baseline at EOT, ACQ-5 score change from baseline, and AQLQ score change from baseline. Other secondary and exploratory endpoints are described in Table 2.

[1] = Week 12, baseline weight ≥90 kg
[2] = Week 12, smoking history Former
[3] = EOT (Week 12), all others, mITT
[4] = Week 2, before LOAC and OCS use, as observed, mITT
[5] = Week 2, observed/LOCF imputed, mITT
[6] = Week 2, on-site conventional spirometry as observed, mITT
[7] = Week 4, before LOAC and OCS use, as observed, mITT
[8] = Week 4, observed/LOCF imputed, mITT
[9] = Week 4, on-site conventional spirometry as observed, mITT
[10] = Week 6, before LOAC and OCS use, as observed, mITT
[11] = Week 6, observed/LOCF imputed, mITT
[12] = Week 6, on-site conventional spirometry as observed, mITT
[13] = Week 8, before LOAC and OCS use, as observed, mITT
[14] = Week 8, observed/LOCF imputed, mITT
[15] = Week 8, on-site conventional spirometry as observed, mITT
[16] = Week 10, before LOAC and OCS use, as observed, mITT
[17] = Week 10, observed/LOCF imputed, mITT
[18] = Week 10, on-site conventional spirometry as observed, mITT
[19] = Week 12 (EOT), MMRM supplementary analysis, mITT
[20] = Week 12, before LOAC and OCS use, as observed, mITT

CC(C)(C=C(C#N)C(=O)N1CCC[C@@H](n2nc(-c3ccc(Oc4ccccc4)cc3F)c3c(N)ncnc32)C1)N1CCN(C2COC2)CC1 (mixture of isomers) [rilzabrutinib, (R)-2-[3-[4-amino-3-(2-fluoro-4-phenoxy-phenyl)pyrazolo[3,4-d]pyrimidin-1-yl]piperidine-1-carbonyl]-4-methyl-4-[4-(oxetan-3-yl)piperazin-1-yl]pent-2-enenitrile]
Pre-bronchodilator FEV1 change from baseline, LS Mean [1]: -0.25 L
Pre-bronchodilator FEV1 change from baseline, LS Mean Diff vs. placebo [1]: -0.37 L
Pre-bronchodilator FEV1 change from baseline, Mean [1]: -0.17 L
Pre-bronchodilator FEV1 change from baseline, LS Mean (Week 12, female): 0.00 L
Pre-bronchodilator FEV1 change from baseline, LS Mean Diff vs. placebo (Week 12, female): 0.04 L
Pre-bronchodilator FEV1 change from baseline, Mean (Week 12, female): -0.01 L
Pre-bronchodilator FEV1 change from baseline, LS Mean (Week 12, male): -0.23 L
Pre-bronchodilator FEV1 change from baseline, LS Mean Diff vs. placebo (Week 12, male): -0.16 L
Pre-bronchodilator FEV1 change from baseline, Mean (Week 12, male): -0.08 L
Pre-bronchodilator FEV1 change from baseline, LS Mean [2]: -0.57 L
Pre-bronchodilator FEV1 change from baseline, LS Mean Diff vs. placebo [2]: -0.21 L
Pre-bronchodilator FEV1 change from baseline, Mean [2]: -0.36 L
Pre-bronchodilator FEV1 change from baseline, LS Mean (Week 12, smoking history Never): -0.05 L
Pre-bronchodilator FEV1 change from baseline, LS Mean Diff vs. placebo (Week 12, smoking history Never): 0.03 L
Pre-bronchodilator FEV1 change from baseline, Mean (Week 12, smoking history Never): 0.02 L
Difference vs. placebo, LS mean change in pre-bronchodilator FEV1 (L) at Week 12 (95% CI −0.17, 0.19, p=0.9466): 0.01 L
Change from baseline in pre-bronchodilator FEV1, LS Mean (SE) [3]: -0.05 L
Change from baseline in pre-bronchodilator FEV1, LS Mean Diff vs. placebo (95% CI) [3]: 0.03 L
Change from baseline in pre-bronchodilator FEV1, Mean (SD) (EOT (Week 12), all others, mITT, n=22): -0.02 L
Change from baseline in pre-bronchodilator FEV1, Mean (SD) (EOT (Week 12), low EOS (<0.15) and low FeNO (<25), mITT, n=3): -0.17 L
LS Mean change from baseline in pre-bronchodilator FEV1 (L) at Week 12 (N=32, mITT): −0.07 (0.08) L
Pre-bronchodilator FEV1, mean [4]: 2.20 L
Pre-bronchodilator FEV1, median [4]: 2.08 L
Pre-bronchodilator FEV1 change from baseline, Mean [4]: 0.08 L
Pre-bronchodilator FEV1 change from baseline, median [4]: 0.04 L
Pre-bronchodilator FEV1 percent change from baseline, mean [4]: 4.47%
Pre-bronchodilator FEV1 percent change from baseline, median [4]: 2.02%
Pre-bronchodilator FEV1, mean [5]: 2.20 L
Pre-bronchodilator FEV1, median [5]: 2.08 L
Pre-bronchodilator FEV1 change from baseline, LS Mean [5]: 0.06 L
Pre-bronchodilator FEV1 change from baseline, LS Mean Diff vs. placebo [5]: 0.00 L
Pre-bronchodilator FEV1 change from baseline, Mean [5]: 0.08 L
Pre-bronchodilator FEV1 change from baseline, median [5]: 0.04 L
Pre-bronchodilator FEV1, mean [6]: 2.20 L
Pre-bronchodilator FEV1, median [6]: 2.08 L
Pre-bronchodilator FEV1 change from baseline, Mean [6]: 0.08 L
Pre-bronchodilator FEV1 change from baseline, median [6]: 0.04 L
Pre-bronchodilator FEV1 percent change from baseline, mean [6]: 4.47%
Pre-bronchodilator FEV1 percent change from baseline, median [6]: 2.02%
Pre-bronchodilator FEV1, mean [7]: 2.05 L
Pre-bronchodilator FEV1, median [7]: 1.96 L
Pre-bronchodilator FEV1 change from baseline, Mean [7]: 0.07 L
Pre-bronchodilator FEV1 change from baseline, median [7]: 0.02 L
Pre-bronchodilator FEV1 percent change from baseline, mean [7]: 3.72%
Pre-bronchodilator FEV1 percent change from baseline, median [7]: 0.55%
Pre-bronchodilator FEV1, mean [8]: 2.07 L
Pre-bronchodilator FEV1, median [8]: 1.96 L
Pre-bronchodilator FEV1 change from baseline, LS Mean [8]: 0.08 L
Pre-bronchodilator FEV1 change from baseline, LS Mean Diff vs. placebo [8]: -0.01 L
Pre-bronchodilator FEV1 change from baseline, Mean [8]: 0.07 L
Pre-bronchodilator FEV1 change from baseline, median [8]: 0.02 L
Pre-bronchodilator FEV1, mean [9]: 2.05 L
Pre-bronchodilator FEV1, median [9]: 1.96 L
Pre-bronchodilator FEV1 change from baseline, Mean [9]: 0.07 L
Pre-bronchodilator FEV1 change from baseline, median [9]: 0.02 L
Pre-bronchodilator FEV1 percent change from baseline, mean [9]: 3.72%
Pre-bronchodilator FEV1 percent change from baseline, median [9]: 0.55%
Pre-bronchodilator FEV1, mean [10]: 2.24 L
Pre-bronchodilator FEV1, median [10]: 2.01 L
Pre-bronchodilator FEV1 change from baseline, Mean [10]: 0.09 L
Pre-bronchodilator FEV1 change from baseline, median [10]: 0.07 L
Pre-bronchodilator FEV1 percent change from baseline, mean [10]: 3.99%
Pre-bronchodilator FEV1 percent change from baseline, median [10]: 3.66%
Pre-bronchodilator FEV1, mean [11]: 2.24 L
Pre-bronchodilator FEV1, median [11]: 2.01 L
Pre-bronchodilator FEV1 change from baseline, LS Mean [11]: -0.03 L
Pre-bronchodilator FEV1 change from baseline, LS Mean Diff vs. placebo [11]: -0.03 L
Pre-bronchodilator FEV1 change from baseline, Mean [11]: 0.09 L
Pre-bronchodilator FEV1 change from baseline, median [11]: 0.07 L
Pre-bronchodilator FEV1, mean [12]: 2.24 L
Pre-bronchodilator FEV1, median [12]: 2.06 L
Pre-bronchodilator FEV1 change from baseline, Mean [12]: 0.10 L
Pre-bronchodilator FEV1 change from baseline, median [12]: 0.07 L
Pre-bronchodilator FEV1 percent change from baseline, mean [12]: 4.61%
Pre-bronchodilator FEV1 percent change from baseline, median [12]: 5.14%
Pre-bronchodilator FEV1, mean [13]: 2.10 L
Pre-bronchodilator FEV1, median [13]: 1.83 L
Pre-bronchodilator FEV1 change from baseline, Mean [13]: 0.08 L
Pre-bronchodilator FEV1 change from baseline, median [13]: 0.11 L
Pre-bronchodilator FEV1 percent change from baseline, mean [13]: 3.28%
Pre-bronchodilator FEV1 percent change from baseline, median [13]: 3.73%
Pre-bronchodilator FEV1, mean [14]: 2.09 L
Pre-bronchodilator FEV1, median [14]: 1.83 L
Pre-bronchodilator FEV1 change from baseline, LS Mean [14]: -0.00 L
Pre-bronchodilator FEV1 change from baseline, LS Mean Diff vs. placebo [14]: 0.02 L
Pre-bronchodilator FEV1 change from baseline, Mean [14]: 0.04 L
Pre-bronchodilator FEV1 change from baseline, median [14]: 0.05 L
Pre-bronchodilator FEV1, mean [15]: 2.08 L
Pre-bronchodilator FEV1, median [15]: 1.86 L
Pre-bronchodilator FEV1 change from baseline, Mean [15]: 0.08 L
Pre-bronchodilator FEV1 change from baseline, median [15]: 0.09 L
Pre-bronchodilator FEV1 percent change from baseline, mean [15]: 3.30%
Pre-bronchodilator FEV1 percent change from baseline, median [15]: 3.64%
Pre-bronchodilator FEV1, mean [16]: 2.29 L
Pre-bronchodilator FEV1, median [16]: 1.93 L
Pre-bronchodilator FEV1 change from baseline, Mean [16]: 0.21 L
Pre-bronchodilator FEV1 change from baseline, median [16]: 0.12 L
Pre-bronchodilator FEV1 percent change from baseline, mean [16]: 10.71%
Pre-bronchodilator FEV1 percent change from baseline, median [16]: 4.52%
Pre-bronchodilator FEV1, mean [17]: 2.24 L
Pre-bronchodilator FEV1, median [17]: 1.93 L
Pre-bronchodilator FEV1 change from baseline, LS Mean [17]: 0.02 L
Pre-bronchodilator FEV1 change from baseline, LS Mean Diff vs. placebo [17]: 0.06 L
Pre-bronchodilator FEV1 change from baseline, Mean [17]: 0.13 L
Pre-bronchodilator FEV1 change from baseline, median [17]: 0.09 L
Pre-bronchodilator FEV1, mean [18]: 2.29 L
Pre-bronchodilator FEV1, median [18]: 1.93 L
Pre-bronchodilator FEV1 change from baseline, Mean [18]: 0.21 L
Pre-bronchodilator FEV1 change from baseline, median [18]: 0.12 L
Pre-bronchodilator FEV1 percent change from baseline, mean [18]: 10.71%
Pre-bronchodilator FEV1 percent change from baseline, median [18]: 4.52%
Change from baseline in pre-bronchodilator FEV1, Mean [19]: -0.02 L
Change from baseline in pre-bronchodilator FEV1, Median [19]: -0.04 L
Pre-bronchodilator FEV1, Mean [19]: 2.01 L
Pre-bronchodilator FEV1, Median [19]: 1.88 L
Change from baseline in pre-bronchodilator FEV1, LS Mean (Week 12 (EOT), MMRM, mITT): -0.01 L
Change from baseline in pre-bronchodilator FEV1, LS Mean diff vs. placebo (Week 12 (EOT), MMRM, mITT): 0.00 L
Pre-bronchodilator FEV1, mean [20]: 2.01 L
Pre-bronchodilator FEV1, median [20]: 1.88 L
Pre-bronchodilator FEV1 change from baseline, Mean [20]: -0.02 L
